# Results taken from patent publication US20180155757A1, “IDENTIFICATION OF BACTERIA THAT ARE RESISTANT TO CARBAPENEMS BY MEMBRANE IMPERVIOUSNESS” (BIOMÉRIEUX, priority 2015, published 2018).
# Like-named read-outs stand apart in the source and are kept apart here.
# What was measured:
# Assay in all cases: Etest MIC of indicator carbapenems on MH II agar without/with PMBN
# Type in all cases: cell-based
# [1] = test system: K. pneumoniae KP 55 (porin−); conditions: Klebsiella pneumoniae
# Procedure: (§1) The determinations of antibiotic MIC were carried out on solid culture media with the Etest® method. To do this, Etest® strips (bioMérieux, France) were used: • Etest® Imipenem IM 32, and • Etest® Ertapenem ETP 32, and also solid culture media, differing from one another by virtue of their non-inhibitory concentrations of PMBN.
# (§2) These solid culture media are prepared in Petri dishes (0=145 mm; V=50 ml) on a base of MH II Agar (Becton Dickinson®, United States), more or less supplemented with PMBN. The PMBN concentrations range from 0 up to concentrations equivalent to one fifth of the MIC of PMBN (⅕ MICPMBN).
# (§3) Using a swab and the Retro C80™ rota-plater (bioMérieux, France), the culture media were inoculated with the bacteria, originating from an inoculum of 0.5 McFarland, prepared in 0.85% NaCl solution from colonies subcultured the day before on MH II agar.
# (§4) The various Etest® strips are then deposited on the surface of the culture media. After 16 to 20 hours of incubation at 35° C., the MICS were read.
# (§5) By way of indicator carbapenems according to the invention, in addition to imipenem (IM) and ertapenem (ETP), meropenem (MP) was also tested. Like the other two antibiotics, meropenem was used in the form of Etest® strips (Etest® Meropenem MP 32 from the company bioMérieux, France).
# (§6) The methods used to prepare the new culture media and to carry out the antibiotic-sensitivity tests are identical to those described above.
# [2] = test system: K. pneumoniae 1204036 (membrane impermeability)
# Procedure: as §1, §2, §3, §4, §5, §6
# [3] = test system: E. cloacae 1008074 (VIM producer)
# Procedure: as §1, §2, §3, §4, §5, §6
# [4] = test system: K. pneumoniae KP 63 (porin−); conditions: Klebsiella pneumoniae
# Procedure: as §1, §2, §3, §4, §5, §6
# [5] = test system: E. cloacae 1109137 (OXA-48 producer)
# Procedure: as §1, §2, §3, §4, §5, §6
# [6] = test system: E. cloacae 1008080 (IMP producer); conditions: in µg/mL
# Procedure: as §1, §2, §3, §4, §5, §6
# K. pneumoniae 1204034 = test system: K. pneumoniae 1204034
# Procedure: as §1, §2, §3, §4
# (§7) To do this, imipenem and ertapenem were used as indicator carbapenems. Non-inhibitory concentrations of PMBN, equivalent to concentrations of one tenth ( 1/10), one eighth (⅛) and one fifth (⅕) of the MIC of PMBN, were applied.
# (§8) In the light of the MICPMBN values previously identified, very predominantly much higher than 300 μg/ml, the following standard concentrations were retained and applied to the bacterial strains to be tested: 50, 100, 150, 200 and 300 μg/ml.
# as §5, §6
# E. aerogenes 9203076 = conditions: in µg/mL
# Procedure: as §1, §2, §3, §4, §7, §8, §5, §6
smiles,measurement,setting,value
"C[C@@H](O)[C@H]1C(=O)N2C(C(=O)O)=C(SCCN=CN)C[C@H]12 [IM, imipenem]",MIC,[1]; [PMBN] 0,0.38 µg/mL
same,MIC,[1]; [PMBN] 50 μg/ml,0.25 µg/mL
same,MIC,[1]; [PMBN] 100 μg/ml,0.25 µg/mL
same,MIC,[1]; [PMBN] 150 μg/ml,0.25 µg/mL
same,MIC,[1]; [PMBN] 200 μg/ml,0.19 µg/mL
same,MIC,"[2]; [PMBN] 0, Table 4a",2 µg/mL
same,MIC,"[2]; [PMBN] 100, Table 4a",2 µg/mL
same,MIC,"[2]; [PMBN] 200, Table 4a",2 µg/mL
same,MIC,"[2]; [PMBN] 300, Table 4a",1.5 µg/mL
same,MIC,"[3]; [PMBN] 0, Table 4a",3 µg/mL
same,MIC,"[3]; [PMBN] 100, Table 4a",3 µg/mL
same,MIC,"[3]; [PMBN] 200, Table 4a",8 µg/mL
same,MIC,"[3]; [PMBN] 300, Table 4a",6 µg/mL
same,MIC,[4]; [PMBN] 0,0.25 µg/mL
same,MIC,[4]; [PMBN] 50 μg/ml,0.25 µg/mL
same,MIC,[4]; [PMBN] 100 μg/ml,0.125 µg/mL
same,MIC,[4]; [PMBN] 150 μg/ml,0.125 µg/mL
same,MIC,[4]; [PMBN] 200 μg/ml,0.125 µg/mL
same,MIC,"[5]; [PMBN] 0, Table 4a",1.5 µg/mL
same,MIC,"[5]; [PMBN] 100, Table 4a",4 µg/mL
same,MIC,"[5]; [PMBN] 200, Table 4a",2 µg/mL
same,MIC,"[5]; [PMBN] 300, Table 4a",1.5 µg/mL
same,MIC,"[6]; [PMBN] 0, Table 4a",1
same,MIC,"[6]; [PMBN] 100, Table 4a",12
same,MIC,"[6]; [PMBN] 200, Table 4a",3
same,MIC,"[6]; [PMBN] 300, Table 4a",6
same,MIC,"K. pneumoniae 1204034; K. pneumoniae 1204034 (membrane impermeability), [PMBN] 0, Table 4a",3 µg/mL
same,MIC,"K. pneumoniae 1204034; K. pneumoniae 1204034 (membrane impermeability), [PMBN] 100, Table 4a",0.5 µg/mL
same,MIC,"K. pneumoniae 1204034; K. pneumoniae 1204034 (membrane impermeability), [PMBN] 200, Table 4a",0.38 µg/mL
same,MIC,"K. pneumoniae 1204034; K. pneumoniae 1204034 (membrane impermeability), [PMBN] 300, Table 4a",0.19 µg/mL
same,MIC,"K. pneumoniae 1204034; K. pneumoniae 1204034, [PMBN] 0, Table 3",2 µg/mL
same,MIC,"K. pneumoniae 1204034; K. pneumoniae 1204034, [PMBN] MIC/5",0.5 µg/mL
same,MIC,"K. pneumoniae 1204034; K. pneumoniae 1204034, [PMBN] MIC/8",0.5 µg/mL
same,MIC,"K. pneumoniae 1204034; K. pneumoniae 1204034, [PMBN] MIC/10",0.5 µg/mL
same,MIC,"K. pneumoniae 1204034; Klebsiella pneumoniae, 1204034, K. pneumoniae 1204034 (porin−), [PMBN] 0, Table 4, read-out: MIC",2 µg/mL
same,MIC,"K. pneumoniae 1204034; Klebsiella pneumoniae, 1204034, K. pneumoniae 1204034 (porin−), [PMBN] 150 μg/ml, Table 4, read-out: MIC",0.38 µg/mL
same,MIC,"K. pneumoniae 1204034; Klebsiella pneumoniae, 1204034, K. pneumoniae 1204034 (porin−), [PMBN] 200 μg/ml, Table 4, read-out: MIC",0.38 µg/mL
same,MIC,"E. aerogenes 9203076; E. aerogenes 9203076 (membrane impermeability), [PMBN] 0, Table 4a",8
same,MIC,"E. aerogenes 9203076; E. aerogenes 9203076 (membrane impermeability), [PMBN] 100, Table 4a",16
same,MIC,"E. aerogenes 9203076; E. aerogenes 9203076 (membrane impermeability), [PMBN] 200, Table 4a",4
same,MIC,"E. aerogenes 9203076; E. aerogenes 9203076 (membrane impermeability), [PMBN] 300, Table 4a",4
same,MIC,"E. aerogenes 9203076; E. aerogenes 9203076, [PMBN] 0, Table 3",8
same,MIC,"E. aerogenes 9203076; E. aerogenes 9203076, [PMBN] MIC/5",2
same,MIC,"E. aerogenes 9203076; E. aerogenes 9203076, [PMBN] MIC/8",2
same,MIC,"E. aerogenes 9203076; E. aerogenes 9203076, [PMBN] MIC/10",2
